Test results from patent US9463192B2, “Trk-inhibiting compound” (ONO PHARMACEUTICAL CO., LTD., priority 2013, dated 2016).
Where two headings read alike, the source gives them in different places.

How the values were obtained:
[1] = system: NGF-induced vascular hyper permeability; experiment: Inhibition of rat NGF-induced vascular hyper permeability; format: in vivo; settings: po, 1 mg/kg orally, read-out: Inhibition rate of vascular hyper permeability (%) (time after administration (h))
Procedure: TrkA-inhibiting activity of the present compound was evaluted in vivo. The present compound dissolved in a medium was orally administered (adminstered volume: 5 mL/kg) to male CD(SD)IGS rats (7- to 9-week old, Charles River laboratories Japan, Inc.) shaved on the back. A medium was orally administered (adminstered volume: 5 mL/kg) to the control and normal groups. After 6, 12 or 14 hours of administration, 3 μg/mL of a NGF (Mouse 2.5s, Natural, Invitrogen) solution prepared in 0.1% BSA (Sigma-Aldrich)-containing saline was intracutaneously administered (dose; 50 μL/site) at 3 sites on the back of animals under halothane anesthesia. For the normal group, 0.1% BSA-containing saline was intracutaneously administered (dose; […]) at 3 sites on the back. Immediately after intracutaneous administration, 1% Evans Blue (Tokyo Chemical Industriy Co., Ltd.) was administered intravenously from tail (adminstered volume: 3 mL/kg). After 10 minutes of administration, the animals were sacrificed by bleeding due to incision of the abdominal aorta. The sites of intracutaneous administration on the back (3 sites) were excised and the skin samples were respectively transferred to the wells in a 48-well plate (Asahi Glass Co., Ltd.). Formamide (0.8 mL/well) was added to the plate and the plate was sealed and incubated overnight at 60° C. The formamide extraction solution (200 μL) was transferred to a 96-well plate and the absorbance (wavelength: 620 nm) of Evans Blue extracted in formamide was measured on an absorbance microplate reader (SpectraMAX 190, Molecular Devices Japan, K.K.). Standard samples of Evans Blue dissolved in formamide (0, 0.78, 1.56, 3.13, 6.25, 12.5, 25 and 50 µg/mL) were measured at the same time for the absorance (wavelength: 620 nm) to generate a calibration curve. Based on the calibration curve and the absorbances of samples, the concentrations of Evans Blue in the sample was calculated. The concentrations of Evans Blue for three skin samples collected from one aminal were averaged to obtain the vale for the animal. The rate of inhibition for rat NGF-induced vascular hyper permeability of the present compound was calculated according to the following Equation: Inhibition rate (%)={1−(AX−AN)/(AC−AN)}×100 [Eq. 3]
wherein AX: the concentration of Evans Blue of the test compound (an average value of 3 samples from one animal);
AN: the concentration of Evans Blue of the normal group (an average value of 3 samples from one animal);
AC: the concentration of Evans Blue of the control group (an average value of 3 samples from one animal).

human TrkA = human TrkA (Homo sapiens (Human), UniProt P04629); experiment: Measurement of TrkA kinase-inhibiting activity using human TrkA-expressing cells; format: cell-based; settings: CHO-K1 cells expressing human TrkA and NFAT-bla; NGF 50 ng/ml; TR-FRET reporter
Chain of human TrkA (P04629 33-796): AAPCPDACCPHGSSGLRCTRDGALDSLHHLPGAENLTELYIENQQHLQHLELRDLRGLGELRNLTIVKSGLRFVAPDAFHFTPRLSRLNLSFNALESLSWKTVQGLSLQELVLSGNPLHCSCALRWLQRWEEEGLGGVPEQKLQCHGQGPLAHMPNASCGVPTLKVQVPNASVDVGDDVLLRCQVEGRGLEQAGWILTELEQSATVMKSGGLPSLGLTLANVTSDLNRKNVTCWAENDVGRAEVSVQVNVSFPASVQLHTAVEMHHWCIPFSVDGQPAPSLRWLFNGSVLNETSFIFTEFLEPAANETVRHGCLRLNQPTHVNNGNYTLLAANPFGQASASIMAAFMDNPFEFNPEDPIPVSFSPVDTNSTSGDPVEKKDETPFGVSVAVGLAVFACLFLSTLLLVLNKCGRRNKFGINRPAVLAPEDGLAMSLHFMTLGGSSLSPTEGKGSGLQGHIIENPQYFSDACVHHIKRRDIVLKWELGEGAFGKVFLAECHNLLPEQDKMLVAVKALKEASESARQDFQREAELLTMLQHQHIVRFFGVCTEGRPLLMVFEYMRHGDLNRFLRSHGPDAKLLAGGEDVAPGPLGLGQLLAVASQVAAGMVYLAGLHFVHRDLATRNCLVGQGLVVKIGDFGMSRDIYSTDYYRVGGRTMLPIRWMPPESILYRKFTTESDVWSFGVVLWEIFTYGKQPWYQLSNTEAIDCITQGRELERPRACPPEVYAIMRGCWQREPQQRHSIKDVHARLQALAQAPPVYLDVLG
Procedure: TrkA kinase-inhibiting activity in cell systems was measured using CHO-K1 cells exressing human TrkA and NFAT-bla (CellSenser™ TrkA-NFAT-bla CHO-K1 cells, Invitrogen).
On the day before the assay, CellSenser™ TrkA-NFAT-bla CHO-K1 cells were suspended in an assay medium (Opti-MEM1 Reduced Serum Medium (Invitrogen) containing 0.5% dialysed fetal bovine serum (Invitrogen), 0.1 mM nonessential amino acids (Invitrogen), 1 mM sodium pyruvate (Invitrogen) and antibiotics (100 U/mL penicillin and 100 µg/mL streptomycin (Invitrogen))) and plated at a density of 2.4×10^4 cells/40 μL/well in a 96-well clear bottom plate (Corning, Catalogue No.: 3882). In some wells were added only the assay medium at 40 μL/well (Cell-free). On the day of the assay, 10 mM of the present compound (DMSO solution) was distributed in a 96-well plate (Costar, Catalogue No.: 3363) and serially diluted with DMSO with the geometrical ratio of 3. The serial dilutions were diluted with the assay medium to 100-fold to prepare a solution of the present compound with a 10-fold concentration (DMSO concentration: 1%). To the plate where cells were plated was added the present compound at 5 µL/well and the plate was incubated in a CO2 incubator with 5% CO2, 95% Air at 37° C. for 30 minutes. For a control and a blank, the assay medium containing 1% DMSO was added at 5 µL/well in place of the solution of the present compound. Subsequently the assay medium containing NGF (Mouse 2.5s, Natural, Invitrogen) was added to the plate at 5 µL/well (final concentration of NGF: 50 ng/ml) and the plate was incubated in a CO2 incubator with 5% CO2, 95% Air at 37° C. for 5 hours. For the blank group, the assay medium was added in place of NGF at 5 µL/well. A reporter assay detection reagent ([…]) was added to the plate which was then incubated in the dark at room temperature for 120 minutes. The reporter assay detection reagent was prepared from LiveBLAzer™-FRET B/G Loading Kit (Invitrogen). On the Analyst GT (Molecular Devices Japan, K.K.) the wells were irradiated with excitation light at 405 nm and the fluorescence intensities at 460 nm and 530 nm were measured. The time resolved fluorescence resonance energy transfer (TR-FRET) ratio of each well was calculated according to the following Equation 1: TR-FRET ratio=(A460x−A460F)/(A530x−A530F) [Eq. 1]
A460x: the fluorescence intensity at 460 nm of the present compound, control or blank;
A460F: the fluorescence intensity at 460 nm of the Cell-free;
A530x: the fluorescence intensity at 530 nm of the present compound, control or blank; and
A530x: the fluorescence intensity at 530 nm of the Cell-free.
The TR-FRET inhibition rate (%) of the present compound was calculated according to the following Equation 2: Inhibition rate (%)={1−(AX−AB)/(AC−AB)}×100 [Eq. 2]
wherein AX: the TR-FRET ratio when the present compound is added;
AB: the TR-FRET of the blank; and
AC: the TR-FRET of the control.
The IC50 value by the present compound was calculated from the inhibition curve based on the inhibition rate of the present compound at respective concentrations.

| IC50 (human TrkA) | Compound | inhibition in vivo at 1 mg/kg ([1]; 14 h after administration) | inhibition in vivo at 1 mg/kg ([1]; 12 h after administration) |
| --- | --- | --- | --- |
| 0.001 µM | Nc1ncc(Cl)cc1-c1ccc(Oc2ncc(NC(=O)Nc3cc(C(F)(F)F)ccc3-n3cccn3)cn2)cc1 [Example 7, 1-(2-(1H-pyrazol-1-yl)-5-(trifluoromethyl)phenyl)-3-(2-(4-(2-amino-5-chloropyridin-3-yl)phenoxy)pyrimidin-5-yl)urea] | 97% | – |
| 0.001 µM | Cc1cn(-c2ccc(C(F)(F)F)cc2NC(=O)Nc2cnc(Oc3ccc(-c4cc(Cl)cnc4N)cc3)nc2)nn1 [Example 8-1, 1-(2-(4-(2-amino-5-chloropyridin-3-yl)phenoxy)pyrimidin-5-yl)-3-(2-(4-methyl-1H-1,2,3-triazol-1-yl)-5-(trifluoromethyl)phenyl)urea] | 94% | – |
| 0.002 µM | Nc1ncc(Cl)cc1-c1ccc(Oc2ncc(NC(=O)Nc3cc(C(F)(F)F)ccc3-n3ccc(C(F)(F)F)n3)cn2)cc1 [Example 8-2, 1-(2-(4-(2-amino-5-chloropyridin-3-yl)phenoxy)pyrimidin-5-yl)-3-(5-(trifluoromethyl)-2-(3-(trifluoromethyl)-1H-pyrazol-1-yl)phenyl)urea] | 100% | – |
| 0.001 µM | Nc1ncc(Cl)cc1-c1ccc(Oc2ncc(NC(=O)Nc3cc(C(F)(F)F)ccc3Cl)cn2)cc1 [Example 8-4, 1-(2-(4-(2-amino-5-chloropyridin-3-yl)phenoxy)pyrimidin-5-yl)-3-(2-chloro-5-(trifluoromethyl)phenyl)urea] | 96% | – |
| 0.003 µM | Nc1ncc(Cl)cc1-c1ccc(Oc2ccc(NC(=O)Nc3cc(C(F)(F)F)ccc3-n3cccn3)cn2)cc1 [Example 9-1] | 86% | – |
| 0.001 µM | Nc1ncc(Cl)cc1-c1ccc(Oc2ccc(NC(=O)Nc3cc(C(F)(F)F)ccc3-n3ccnn3)cn2)cc1 [Example 9-2] | 100% | – |
| 0.001 µM | Nc1ncc(Cl)cc1-c1ccc(Oc2ccc(NC(=O)Nc3cc(C(F)(F)F)ccc3-c3cccnc3)cn2)cc1 [Example 11, 1-(6-(4-(2-amino-5-chloropyridin-3-yl)phenoxy)pyridin-3-yl)-3-(2-(pyridin-3-yl)-5-(trifluoromethyl)phenyl)urea] | 100% | – |
| 0.002 µM | Cn1nccc1-c1ccc(C(F)(F)F)cc1NC(=O)Nc1cnc(Oc2ccc(-c3cc(Cl)cnc3N)cc2)nc1 [Example 13-1, 1-(2-(4-(2-amino-5-chloropyridin-3-yl)phenoxy)pyrimidin-5-yl)-3-(2-(1-methyl-1H-pyrazol-5-yl)-5-(trifluoromethyl)phenyl)urea] | 100% | – |
| 0.001 µM | Nc1ncc(F)cc1-c1ccc(Oc2ncc(NC(=O)Nc3cc(C(F)(F)F)ccc3-n3ccnn3)cn2)cc1 [Example 14-5, 1-(2-(1H-1,2,3-triazol-1-yl)-5-(trifluoromethyl)phenyl)-3-(2-(4-(2-amino-5-fluoropyridin-3-yl)phenoxy)pyrimidin-5-yl)urea] | 93% | – |
| 0.001 µM | Nc1ncc(F)cc1-c1ccc(Oc2ncc(NC(=O)Nc3cc(C(F)(F)F)ccc3-c3cccnc3)cn2)cc1 [Example 14-6, 1-(2-(4-(2-amino-5-fluoropyridin-3-yl)phenoxy)pyrimidin-5-yl)-3-(2-(pyridin-3-yl)-5-(trifluoromethyl)phenyl)urea] | – | 78% |
| 0.001 µM | Nc1ncc(Cl)cc1-c1ccc(Oc2ncc(NC(=O)Nc3ccc(C(F)(F)F)cc3-n3cccn3)cn2)cc1 [Example 15-4, 1-(2-(1H-pyrazol-1-yl)-4-(trifluoromethyl)phenyl)-3-(2-(4-(2-amino-5-chloropyridin-3-yl)phenoxy)pyrimidin-5-yl)urea] | 100% | – |
| 0.003 µM | Nc1ncc(Cl)cc1-c1ccc(Oc2ncc(NC(=O)Nc3ccc(C(F)(F)F)cc3F)cn2)cc1 [Example 15-5, 1-(2-(4-(2-amino-5-chloropyridin-3-yl)phenoxy)pyrimidin-5-yl)-3-(2-fluoro-4-(trifluoromethyl)phenyl)urea] | 92% | – |
| 0.002 µM | Nc1ncc(Cl)cc1-c1ccc(Oc2ncc(NC(=O)Nc3ccc(C(F)(F)F)cc3Cl)cn2)cc1 [Example 15-6, 1-(2-(4-(2-amino-5-chloropyridin-3-yl)phenoxy)pyrimidin-5-yl)-3-(2-chloro-4-(trifluoromethyl)phenyl)urea] | 95% | – |
| 0.001 µM | O=C(Nc1cnc(Oc2ccc(-c3cnc4ccccn34)cc2)nc1)Nc1cc(C(F)(F)F)ccc1-n1cccn1 [Example 23-3, 1-(2-(1H-pyrazol-1-yl)-5-(trifluoromethyl)phenyl)-3-(2-(4-(imidazo[1,2-a]pyridin-3-yl)phenoxy)pyrimidin-5-yl)urea] | – | – |
| 0.002 µM | O=C(Nc1cnc(Oc2ccc(-c3cnc4[nH]ccc4c3)cc2)nc1)Nc1cc(C(F)(F)F)ccc1-c1cccnc1 [Example 23-7, 1-(2-(4-(1H-pyrrolo[2,3-b]pyridin-5-yl)phenoxy)pyrimidin-5-yl)-3-(2-(pyridin-3-yl)-5-(trifluoromethyl)phenyl)urea] | – | – |
| 0.001 µM | O=C(Nc1cnc(Oc2ccc(-c3cnc4cnccn34)cc2)nc1)Nc1cc(C(F)(F)F)ccc1-c1cccnc1 [Example 23-10, 1-(2-(4-(imidazo[1,2-a]pyrazin-3-yl)phenoxy)pyrimidin-5-yl)-3-(2-(pyridin-3-yl)-5-(trifluoromethyl)phenyl)urea] | – | – |
| 0.001 µM | O=C(Nc1cnc(Oc2ccc(-c3cnn4ccccc34)cc2)nc1)Nc1cc(C(F)(F)F)ccc1-c1cccnc1 [Example 23-11, 1-(2-(4-(pyrazolo[1,5-a]pyridin-3-yl)phenoxy)pyrimidin-5-yl)-3-(2-(pyridin-3-yl)-5-(trifluoromethyl)phenyl)urea] | – | – |
| 0.001 µM | O=C(Nc1cnc(Oc2ccc(-c3cnc4[nH]ncc4c3)cc2)nc1)Nc1cc(C(F)(F)F)ccc1-c1cccnc1 [Example 23-12, 1-(2-(4-(1H-pyrazolo[3,4-b]pyridin-5-yl)phenoxy)pyrimidin-5-yl)-3-(2-(pyridin-3-yl)-5-(trifluoromethyl)phenyl)urea] | – | – |
